In one data set the target is T1, acid ceramidase (AC) (Homo sapiens, UniProt Q13510).
T1 construct: endogenous in cells; host or cells: HL-60/VCR, THP-1 and OCI-AML2 human AML cell lines
T1 sequence (Q13510 143-395 limits assumed): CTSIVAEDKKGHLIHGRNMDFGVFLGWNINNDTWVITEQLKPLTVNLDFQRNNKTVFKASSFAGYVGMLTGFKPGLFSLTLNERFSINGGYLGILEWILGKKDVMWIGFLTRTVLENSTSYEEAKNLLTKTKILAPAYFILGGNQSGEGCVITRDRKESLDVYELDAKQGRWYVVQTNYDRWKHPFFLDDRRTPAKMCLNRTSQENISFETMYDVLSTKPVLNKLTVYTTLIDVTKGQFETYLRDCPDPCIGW
T1 sequence (Q13510 22-142 limits assumed): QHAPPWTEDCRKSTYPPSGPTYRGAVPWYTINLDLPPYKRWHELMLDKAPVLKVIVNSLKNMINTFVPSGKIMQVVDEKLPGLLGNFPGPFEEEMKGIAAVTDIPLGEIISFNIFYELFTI
The data set is described as follows: Acid ceramidase activity assay (RBM14C12 fluorogenic substrate) in human AML cell lines. Format: cell-based. Conditions: SACLAC 2.5 μM, 24-hour treatment. The method, then: Cells were seeded at 2×10^4 cells per well in 50 μl Acid ceramidase activity was measured at 24 hours using the RBM14C12 fluorogenic substrate as previously described (22,34).

A further data set concerns 30 human AML cell lines. The data set is described as follows: Cell viability MTS assay, panel of cell lines. The class given is cell-based. The following applies: 24 and 48-hour time points. The protocol: For cell viability, cell lines were plated at 2.5×10^4 cells per well in a 96-well plate and treated with […] or DMSO vehicle (0.4% of total volume) for the indicated time points and doses. At the experiment end point, 3-(4,5-Dimethylthiazol-2-yl)-5-(3-carboxymethoxyphenyl)-2-(4-sulfophenyl)-2H-tetrazolium (MTS) Cell Proliferation Colorimetric Assay Kit (# K300-5000, BioVision, Inc., Milpitas, Calif., United States of America) reagent was added and incubated for 2 hours. Conversion of MTS to formazan product was measured by absorbance at 490 nm using a BioTek Cytation 3 plate reader (BioTeck, Winooski, Vt., United States of America). Absorbance was normalized to DMSO control, which was defined as 100% viability. Due to limited cell numbers, patient samples and normal samples were plated at 5×10^3 cells per well in a 384-well plate with […] or DMSO control for the indicated time points and doses. At the experiment end point, a luminescent reagent sold under the tradename [sequence]-GLOTM (#G7572, Promega Corporation, Madison, Wis., United States of America) was added. After 15 minutes, luminescence was read on a BioTek Cytation 3 plate reader (BioTek, Winooski, Vt., United States of America). Absorbance was normalized to DMSO control, which was defined as 100% viability.

The nature of data set [1]: Mouse serum SACLAC levels by formulation and route. The class given is in vivo. The protocol:
More particularly, SACLAC was dissolved in 2-hydroxypropyl-β-cyclodextrin (β-HPCD) (53). In addition, a SACLAC nanoliposome was prepared.

The structures appear in SMILES notation. Where two headings read alike, the source gives them in different places.

As usually defined, the EC50 is the concentration that produces a half-maximal response.

Regarding `CCCCCCCCCCCCCCC[C@@H](O)[C@H](CO)NC(=O)CCl` [SACLAC, N-[(2S,3R)-1,3-dihydroxyoctadecan-2-yl]2-chloroacetamide], the “AC activity reduced by” value on acid ceramidase (AC) (HL-60/VCR) is on record as 98%; at acid ceramidase (AC) (OCI-AML2) it was 100%; at acid ceramidase (AC) (THP-1) it was 71%. For the same compound, the concentration for a half-maximal effect (EC50) in the data set with 30 human AML cell lines (read-out: average EC50 across 30 human AML cell lines) was 3.2 µM; in the data set with 30 human AML cell lines (Homo sapiens, 48 h, read-out: average EC50 across 30 human AML cell lines), approximately 3 µM; in the data set on 30 human AML cell lines (Homo sapiens, 48 h, read-out: EC50 of 25 of 30 cell lines, 25 of 30 cell lines) it was less than 5 µM. In data set [1] (all treatment groups), the clearance result was “rapidly cleared”. Besides, the serum levels result in data set [1] (free SACLAC in DMSO, i.p.) is on record as “low serum levels”; in data set [1] (β-HPCD, i.v.), “improvement”. The same compound yielded a maximum serum level in data set [1] (maximum over the formulations tested) of approximately 1 µM.

The values above are taken from patent US20220387358A1, “CERAMIDE ANALOG SACLAC MODULATES SPHINGOLIPID LEVELS AND MCL-1 SPLICING TO INDUCE APOPTOSIS IN ACUTE MYELOID LEUKEMIA” (University of Virginia Patent Foundation, priority 2019, published 2022).
